Measurements as given in patent US11786517B2, “Methods of treatment using a JAK inhibitor compound” (THERAVANCE BIOPHARMA R&D IP, LLC, priority 2017, dated 2023).

How the values were obtained:
[1] = test system: IL-6 induced pSTAT3 in rat retina/choroid; assay: Pharmacodynamic assay: inhibition of IL6-induced pSTAT3 in rats; type: in vivo, Female Lewis rats; settings: 3 day pre-treatment
Experimental: The ability of a single intravitreal administration of test compound to inhibit IL-6 induced pSTAT3 was measured in rat retina/choroid homogenates.
Suspension formulations were prepared by combining crystalline compound 1 of Example 1 with 0.5% hydroxypropyl methylcellulose (HPMC E5 LV), 0.02% Tween 80, and 0.9% sodium chloride in purified water to attain target concentrations of 3 mg/mL and 10 mg/mL.
Female Lewis rats were intravitreally (IVT) dosed (5 μL per eye) with the suspension formulations or with the drug vehicle. Three days later, IL-6 (Peprotech; 0.1 mg/mL; 5 μL per eye) or vehicle was intravitreally administered to induce pSTAT3. Ocular tissues were dissected one hour after the second IVT injection with IL-6. The retina/choroid tissues were homogenized and pSTAT3 levels were measured using an ELISA (Cell Signaling Technology). The percent inhibition of IL-6-induced pSTAT3 was calculated in comparison to the vehicle/vehicle and vehicle/IL-6 groups. Inhibition of greater than 100% reflects a reduction of pSTAT3 levels to below those observed in the vehicle/vehicle group.

[2] = test system: IL-27 induced CXCL10 secretion; assay: Inhibition of IL-27 induced CXCL10 in human 3D airway cultures; type: cell-based; settings: 192 h, at 0.1 μM (first of two values so printed), 8 days, ±STDV
Experimental: EpiAirway tissue cultures were obtained from Mattek (AIR-100). Cultures were derived from asthmatic donors. In a cell culture insert, human derived tracheal/bronchial epithelial cells were grown and differentiated on a porous membrane support, allowing an air-liquid interface with warmed culture medium below the cells and a gaseous test atmosphere above. Tissues were cultured in maintenance media (Mattek, AIR-100-MM) in a 37° C., 5% CO2 humidified incubator. Four donors were tested. On Day 0, tissue cultures were treated with test compounds at 10 μM, 1 μM and/or 0.1 μM. Compounds were diluted in dimethyl sulfoxide (DMSO, Sigma) to a final concentration of 0.1%. DMSO at 0.1% was used as a vehicle control. Test compounds were incubated with cultures for 1 hour at 37° C., 5% CO2, followed by the addition of pre-warmed media containing IFNγ (R&D Systems) or IL-27 (R&D Systems) at a final concentration at 100 ng/ml. Tissue cultures were maintained for 8 days. Media was replaced every 2 days with fresh media containing compounds and IFNγ or IL-27. On Day 8, tissue cultures and supernatants were collected for analysis. […] Data is expressed as % Inhibition+/−standard deviation (±STDV). Percent inhibition was determined by compound inhibitory potency against IFNγ or IL-27 induced CXCL10 or CXCL9 secretion compared to vehicle treated cells. […]

airway neutrophils = assay: Murine model of LPS/G-CSF/IL-6/IFNγ cocktail-induced airway neutrophilic inflammation; type: in vivo, Balb/C mice; settings: mouse, 1.0 mg/mL 50 μL oropharyngeal aspiration, BALF at twenty-four hours
Experimental: Airway neutrophilia is a hallmark of a range of respiratory disease in humans. Compound 1 was tested in a model of neutrophilic airway inflammation using a LPS/G-CSF/IL-6/IFNγ cocktail to induce airway neutrophilia.
Seven- to nine-week old male Balb/C (wildtype) mice from Jackson Laboratory were used in the study. On the day of study, animals were lightly anesthetized with isoflurane and administered either vehicle or test compound (1.0 mg/mL, 50 μL total volume over several breaths) via oropharyngeal aspiration. Animals were placed in lateral recumbency post dose and monitored for full recovery from anesthesia before being returned to their home cage. One hour later, animals were once again briefly anesthetized and challenged with either vehicle or LPS; 0.01 mg/kg/G-CSF; 5 μg/IL-6; 5 μg/IFNγ; 5 μg (100 μL total volume) via oropharyngeal aspiration (OA). Twenty-four hours after the LPS/G-CSF/IL-6/IFNγ cocktail administration, bronchoalveolar lavage fluid (BALF) was collected and neutrophils were counted.

[3] = test system: IFNγ induced IP-10 protein levels; assay: Pharmacodynamic assay: inhibition of IFNγ-induced IP-10 in rabbits; type: in vivo, New Zealand White rabbits
Experimental: The ability of a single intravitreal administration of test compound to inhibit interferon-gamma (IFNγ) induced IP-10 protein levels was measured in rabbit vitreous and retina/choroid tissues.
Solution formulations at concentrations of 1 mg/mL and 4 mg/mL of compound 1 of Example 1 were prepared as in Assay 8. A suspension formulation was prepared by combining crystalline compound 1 of Example 1 with 0.5% hydroxypropyl methylcellulose (HPMC E5), 0.02% Tween 80, and 9 mg/mL sodium chloride in purified water to attain a target concentration of 20 mg/mL.
Male, New Zealand White rabbits (Liveon Biolabs, India) were used for the studies. Animals were acclimated after arrival at the research facilities (Jubilant Biosys Ltd., India). Each rabbit was given a total of two intravitreal (IVT) injections with a total dose volume of 50 μL per eye. The first IVT injection (45 μL per eye) delivered test compound or vehicle at a prescribed time point (i.e. 24 hours for the solution formulations or 1 week for the suspension formulation). The second IVT injection (5 μL per eye) delivered IFNγ (1 μg/eye; Stock solution 1 mg/mL; Kingfisher Biotech) or vehicle for the induction of IP-10. In brief, on the day of the injections, rabbits were anesthetized with an intramuscular injection of ketamine (35 mg/kg) and xylazine (5 mg/kg). Once deeply anesthetized, each eye was rinsed with sterile saline and IVT injections were performed using a 0.5 mL insulin syringe (50 units=0.5 mL) with a 31-gauge needle at the supra-nasal side of the both eyes by marking the position with a Braunstein fixed caliper (2¾″) 3.5 mm from the rectus muscle and 4 mm from the limbus.
Tissues were collected 24 hours after the second IVT injection with IFNγ. Vitreous humor (VH) and retina/choroid tissues (R/C) were collected and homogenized, and IP-10 protein levels were measured using a rabbit CXCL10 (IP-10) ELISA kit (Kingfisher Biotech). The percent inhibition of IFNγ-induced IP-10 was calculated in comparison to the vehicle/vehicle and vehicle/IFNγ groups.

## CCc1cc(O)c(F)cc1-c1ccc2c(-c3nc4c([nH]3)CCN(C3CCN(C)CC3)C4)n[nH]c2c1 [compound 1, 5-ethyl-2-fluoro-4-(3-(5-(1-methylpiperidin-4-yl)-4,5,6,7-tetrahydro-1H-imidazo[4,5-c]pyridin-2-yl)-1H-indazol-6-yl)phenol]
[1]; 15 μg intravitreal suspension
  inhibition of IL-6-induced pSTAT3: 33%
[1]; 50 μg intravitreal suspension
  inhibition of IL-6-induced pSTAT3: 109%
[2]
  inhibition at 0.1 µM: 98%
Airway neutrophils
  reduction of the airway neutrophils compared to vehicle treated mice: 84%
[3]; rabbit retina/choroid tissue, 45 μg solution, 24 hour pre-treatment
  inhibition of IFNγ-induced IP-10: 86
[3]; rabbit retina/choroid tissue, 180 μg solution, 24 hour pre-treatment
  inhibition of IFNγ-induced IP-10: 100%
[3]; rabbit retina/choroid tissue, crystalline suspension 20 mg/mL, 1 week pre-treatment
  inhibition of IFNγ-induced IP-10: 100%
[3]; rabbit vitreous humor, 45 μg solution, 24 hour pre-treatment
  inhibition of IFNγ-induced IP-10: 70%
[3]; rabbit vitreous humor, 180 μg solution, 24 hour pre-treatment
  inhibition of IFNγ-induced IP-10: 91%
[3]; rabbit vitreous humor, crystalline suspension 20 mg/mL, 1 week pre-treatment
  inhibition of IFNγ-induced IP-10: 100%
